What was measured:
[1] = tested on: cortex culture containing neurons and glia; assay: Brain cell protection in apoptosis induced by oxygen-glucose deprivation (OGD)/reoxygenation, LDH release; format: cell-based, rat; details: for protective effect on brain cells (apoptosis, % LDH release): OGD then 24 hours normoxic, 6 concentrations, FIG. 1
Protocol: A […] cortex culture medium containing neurons and glia was obtained from fetal rats during the gestation period of 17 to 18 days. That is, an embryonic tissue was extracted from a pregnant Sprague-Dawley and transferred to a Hanks Balanced Salt solution (Gibco) cooled with ice. The cortical brain tissue was sterile and thinly dissected and stored in cold HBSS before digestion with 0.0125% trypsin. The isolated cells were placed in a 96 well plate coated with poly-L-lysine (1 mg/ml, Sigma-Aldrich) in a Dulbecco's modified eagle medium (Gibco) containing 10% iron-supplemented fetal calf serum (Hyclone) and 1% antibiotic/antimycotic (Gibco) at 37° C. at a seeding density of 50,000 cells/well. Then, after attaching the culture medium overnight in a 37° C. incubator containing 5% CO2 and atmospheric oxygen, at the next day, the medium was replaced with a warm Neurobasal A medium (Gibco) containing 0.5 mmol/L of L-glutamine (Gibco) and supplemented with 1% B27, N2 and antibiotics/antimycotic (Gibco). In the culture for 14 to 16 days, half of the medium was changed every 4 days. After 14 days of cell culture, the culture medium was replaced with a vehicle (0.1% DMSO or EtOH) or an oxygen-free-glucose Neurobasal A containing an experimental substance (RA1, naringenin or lipoic acid) at 6 concentrations. After oxygen-glucose deprivation (OGD), the same volume of Neurobasal A with the same novel substance concentration was added and transferred to a normoxic condition (5% CO2 and atmospheric oxygen) state for 24 hours. Cellular activity was evaluated by measuring LDH release of damaged cells. The effects of lipoic acid, naringenin, and the novel substance RA1 on apoptosis (% LDH release) following ischemia/reoxygenation-reperfusion (I/R) were performed in the in vitro cell culture.

[2] = tested on: cortex culture containing neurons and glia; assay: Total antioxidant capacity assay after OGD and I/R (Antioxidant Assay Kit); format: cell-based, rat; details: FIG. 2
Protocol: Several groups of plates were subjected to the OGD (oxygen-glucose deprivation) and I/R (ischemia-reperfusion), and the total antioxidant capacity was measured using a general commercial instrument (Antioxidant Assay Kit, Sigma-Aldrich). The average value of the three experiments was obtained and the antioxidant capacity was expressed in […].

[3] = Antioxidant capacity, radical scavenging ability by DPPH (Blois method); details: absorbance at 517 nm
Protocol: The antioxidant capacity of the novel compounds was measured by using a Blois method of measuring radical scavenging ability by DPPH which was widely known. A solution of DPPH by concentration was prepared in ethanol, and the initial absorbance was measured at 517 nm, and the absorbance over time was measured by adding a solution of the novel compound and the DPPH solution. The antioxidant capacity was expressed in % and an IC50 value was obtained using a calculation program.

mushroom tyrosinase = assay: Inhibitory effect on tyrosinase; format: biochemical; details: L-tyrosine substrate, pH 6.5, 37° C., 30 minutes; read-out: Inhibition of tyrosinase
Protocol: The inhibitory effect on tyrosinase related to skin whitening and melanin formation was measured using the following experimental method. 10 μL of each sample solution at a different concentration and 20 μL of mushroom tyrosinase in a phosphate buffer (pH 6.5) were added to a 96-well microplate and added with 170 μL of a mixed solution in which a 1 mM L-tyrosine solution, a 50 mM potassium phosphate buffer (pH 6.5) and distilled water were contained in a ratio of 10:10:9. Samples dissolved in DMSO were diluted 30 times with distilled water and used. After incubation at 37° C. for 30 minutes, the absorbance of the reaction solution was measured at 490 nm using a GENios microplate reader (Tecan Austria GmbH, Austria). The inhibition degree of tyrosinase by the addition of the sample was expressed as a 50% inhibition rate (IC50).

cerebral infarction site = assay: Transient middle cerebral artery occlusion (t-MCAO), administration immediately before artery occlusion; format: in vivo, Sprague-Dawley rats; details: for size of the cerebral infarction site compared to the vehicle: 30 min occlusion, 5 h 30 min reperfusion, FIG. 3(A); for size of the cerebral infarction site, dependence on concentration: FIG. 3(B) and (C)
Protocol: As a research model for cerebral infarction, transient middle cerebral artery occlusion (t-MCAO) in animals (rats) was used to examine the infarct size of the cerebral infarction site and the degree of its protective action. First, in an animal model in which the middle cerebral artery of Sprague-Dawley rats (300 to 350 g; Charles River, Montreal, PQ, CAN) was closed for 30 minutes to create a cerebral infarction and then reperfused for 5 hours and 30 minutes (t-MCAO), naringenin and RA1 (VANL-100) were administered immediately before artery occlusion and compared with a case of administration of a vehicle.

SMILES | IC50 (mushroom tyrosinase) [µM] | Antioxidant capacity (%) [3] [%] | other results
O=C(O)CCCC[C@@H]1CCSS1 (racemic) [Lipoic acid] | 44 | 66.8 | protective effect on brain cells (apoptosis, % LDH release) [1]: hardly showed a protective effect; total antioxidant capacity ([2]; 0.25 and 25 ummol/L): no antioxidant effect; total antioxidant capacity ([2]; high concentrations of 125 and 1250 ummol/L): great antioxidant capacity
OC[C@H]1O[C@@H](Oc2ccc(O)cc2)[C@H](O)[C@@H](O)[C@@H]1O [Arbutin, reference compound] | 266 | 36 | 
O=c1cc(CO)occ1O [Kojic acid, reference compound] |  | 28 | 
O=C1C[C@@H](c2ccc(O)cc2)Oc2cc(O)cc(O)c21 [Naringenin] | 82 | 58.5 | protective effect on brain cells (apoptosis, % LDH release) [1]: slight effect at one concentration; size of the cerebral infarction site compared to the vehicle (cerebral infarction site): significantly reduced; size of the cerebral infarction site, dependence on concentration (cerebral infarction site): reduced the size of the cerebral infarction site depending on a concentration
O=C(CCCCC1CCSS1)OCCOc1cc(O)c2c(c1)OC(c1ccc(O)cc1)CC2=O (stereo not shown) [RA4, 2-((5-hydroxy-2-(4-hydroxyphenyl)-4-oxochroman-7-yl)oxy)ethyl 5-(1,2-dithiolan-3-yl)pentanoate] | 260 | 22 | 

Now from value to compound, other results behind:

IC50 (mushroom tyrosinase) [µM] | SMILES | Antioxidant capacity (%) [3] [%] | other results
32 | O=C(CCCCC1CCSS1)Oc1cc(O)c2c(c1)OC(c1ccc(O)cc1)CC2=O (stereo not shown) [RA1, 5-hydroxy-2-(4-hydroxyphenyl)-4-oxochroman-7-yl 5-(1,2-dithiolan-3-yl)pentanoate] |  | strength of protective effect on brain cells at a very low concentration ([1]; FIG. 1D, comparison with lipoic acid and naringenin): about 100 times; protective effect on brain cells (apoptosis, % LDH release) [1]: very strong protective effect; total antioxidant capacity ([2]; 2.5 to 1250 ummol/L): strong protective effect; size of the cerebral infarction site compared to the vehicle (cerebral infarction site): significantly reduced; size of the cerebral infarction site, dependence on concentration (cerebral infarction site): reduced the size of the cerebral infarction site depending on a concentration; effective concentration, times lower than naringenin (10 mg/kg) (cerebral infarction site; RA1 1×10^−3 mg/kg against naringenin 10 mg/kg): 10,000 times; size of the cerebral infarction site (cerebral infarction site; RA1 at 1×10^−3 mg/kg): strongly reduced; protective effect on brain cells, times stronger than naringenin or lipoic acid (cerebral infarction site; animal brain infarction model, very low concentration): ~10,000 times
58 | O=C(CCCCC1CCSS1)Oc1ccc(C2CC(=O)c3c(O)cc(O)cc3O2)cc1 (stereo not shown) [RA2, 4-(5,7-dihydroxy-4-oxochroman-2-yl)phenyl 5-(1,2-dithiolan-3-yl)pentanoate] | 77 | 
133 | O=C(CCCCC1CCSS1)Oc1ccc(C2CC(=O)c3c(O)cc(OC(=O)CCCCC4CCSS4)cc3O2)cc1 (stereo not shown) [RA3, 4-(7-((5-(1,2-dithiolan-3-yl)pentanoyl)oxy)-5-hydroxy-4-oxochroman-2-yl)phenyl 5-(1,2-dithiolan-3-yl)pentanoate] | 12.4 | 
225 | O=C(CCCCC1CCSS1)OCCOCCOc1cc(O)c2c(c1)OC(c1ccc(O)cc1)CC2=O (stereo not shown) [RA5, 2-(2-((5-hydroxy-2-(4-hydroxyphenyl)-4-oxochroman-7-yl)oxy)ethoxy) ethyl 5-(1,2-dithiolan-3-yl)pentanoate] | 28.5 | 
350 | O=C(CCCCC1CCSS1)OCCOCCOCCOc1cc(O)c2c(c1)OC(c1ccc(O)cc1)CC2=O (stereo not shown) [RA6, 2-(2-(2-((5-hydroxy-2-(4-hydroxyphenyl)-4-oxochroman-7-yl)oxy)ethoxy)ethoxy)ethyl 5-(1,2-dithiolan-3-yl)pentanoate] | 14.6 | 
> 350 | O=C(CCCCC1CCSS1)OCCOCCOCCOCCOc1cc(O)c2c(c1)OC(c1ccc(O)cc1)CC2=O (stereo not shown) [RA7, 2-(2-(2-(2-((5-hydroxy-2-(4-hydroxyphenyl)-4-oxochroman-7-yl)oxy)ethoxy)ethoxy)ethoxy)ethyl 5-(1,2-dithiolan-3-yl)pentanoate] |  | 
> 350 | O=C(CCCCC1CCSS1)OCCOCCOCCOCCOCCOc1cc(O)c2c(c1)OC(c1ccc(O)cc1)CC2=O (stereo not shown) [RA8, 14-((5-hydroxy-2-(4-hydroxyphenyl)-4-oxochroman-7-yl)oxy)-3,6,9,12-tetraoxatetradecyl 5-(1,2-dithiolan-3-yl)pentanoate] | 11.5 | 
> 350 | O=C(CCCCC1CCSS1)OCCOCCOCCOCCOCCOCCOc1cc(O)c2c(c1)OC(c1ccc(O)cc1)CC2=O (stereo not shown) [RA9, 17-((5-hydroxy-2-(4-hydroxyphenyl)-4-oxochroman-7-yl)oxy)-3,6,9,12,15-pentaoxaheptadecyl 5-(1,2-dithiolan-3-yl)pentanoate] | 24 | 

— patent US20210260199A1, “NOVEL NARINGENIN/LIPOIC ACID CONJUGATE COMPOUND AND USE THEREOF” (priority 2018, published 2021)
